Measured values from patent US7291629B2, “Neurotrophin antagonist compositions” (Painceptor Pharma Corporation, priority 1996, dated 2007).
Like-named read-outs stand apart in the source and are kept apart here.

Assays:
[1] = system: nerve-ligated rats; experiment: Nerve-ligated injury model of neuropathic pain, i.c.v. administration (tactile allodynia, thermal hyperalgesia, acute nociception); format: in vivo, rat; settings: given i.c.v.
[2] = system: L5/L6 Nerve Ligated rats; experiment: Tactile allodynia, nerve ligation injury model (von Frey paw withdrawal threshold)
[3] = system: L5/L6 Nerve Ligated and Sham-Operated Rats; settings: for A50(95% C.L.) Tail Flick- Ligated: L5/L6 nerve ligated rats; for A50(95% C.L.) Tail Flick- Sham: sham-operated rats
[4] = system: chick embryo dorsal root ganglia (DRG) neurons; experiment: Inhibition of neurite outgrowth (NGF-stimulated DRG neurons); format: cell-based; settings: 0.25 ng/mL NGF, NGF Control 1.000
Procedure: Eight-day chick embryo dorsal root ganglia (DRG) were freed of meninges and removed aseptically. The DRG were kept at 4° C. at all times. Ganglia from six embryos (40-50 per embryo) were washed in Ca^2+-and Mg^2+-free Gey's balanced salt solution (Gibco) and exposed to 0.01% trypsin (Worthington) in the same solution for 10 min at 37° C. A half-volume of phosphate-buffered Gey's balanced salt solution was added for a further 5 min at 37° C. and the reaction was then terminated with one-third volume of Ham's F12 medium (Gibco) containing 5% fetal calf serum (FCS, Gibco). The ganglia were then triturated using a 5 mL narrow-tip pipette to a single cell suspension. Following filtration through […] nylon mesh (Small Parts Inc., Miami, Fla.) in a Millipore chamber to remove clumps, the cell suspension was washed through a 500-ml FCS undercut (700×g for 5 min at 4° C.) and resuspended in 4 mL of Ham's F12 medium plus 5% FCS. The cell suspension was then preplated on a 100-mm Flacon culture dish and incubated for 45-60 min at 37° C. in a 5% CO2 humidified atmosphere. Cells enriched in neurons were decanted for the bioassay, since non-neuronal cells of DRG preferentially stick to the culture substrate.
The inside wells of 96-well Falcon microculture plates were coated with polylysine (0.1 mg/mL) (Sigma) for 4 h at 37° C. (the outside wells were filled with distilled water to provide humidity) and, following a rinse with tissue culture media, […] of neuron-rich cell suspension was added to each well at 10^5 cells/mL. Ninety (90) […] of NGF solution (prepared in tissue culture media) was then added to each well to a final concentration of 0.25 ng/mL NGF per well. […]
The bioassays were read using a Leitz Diavert microscope with phase optics. […] At least 100 neurons per well were counted, and the assay was scored as the ratio of cells bearing neurites greater than one cell diameter to total viable (phase bright) cells.

[5] = system: L5/L6 Nerve Ligated and Sham-Operated Rats; settings: for A50(95% C.L.) Hot Plate- Ligated: L5/L6 nerve ligated rats; for A50(95% C.L.) Hot Plate- Sham: sham-operated rats

Compound: O=C1c2cccc3cc([N+](=O)[O-])cc(c23)C(=O)N1CCO [Compound A]
- Activity in nerve-ligated injury model of neuropathic pain [1]: not active
- A50(95% C.L.) Allodynia- Ligated ([2]; i.p.): 38 mg/kg
- A50(95% C.L.) Allodynia- Ligated ([2]; i.th): 34.6 µg
- A50(95% C.L.) Tail Flick- Ligated ([3]; i.p.): 27.8 mg/kg
- A50(95% C.L.) Tail Flick- Sham ([3]; i.p.): 25.7 mg/kg
- A50(95% C.L.) Tail Flick- Ligated ([3]; i.th): 78 µg
- A50(95% C.L.) Tail Flick- Sham ([3]; i.th): 34 µg
- Ratio (cells bearing neurites greater than one cell diameter to total viable cells) ([4]; 5 μM compound): 1.1
- Ratio (cells bearing neurites greater than one cell diameter to total viable cells) ([4]; 50 μM compound): 0.16
- Ratio (cells bearing neurites greater than one cell diameter to total viable cells) ([4]; 100 μM compound): 0.016
- A50(95% C.L.) Hot Plate- Ligated ([5]; i.p.): 18.6 mg/kg
- A50(95% C.L.) Hot Plate- Sham ([5]; i.p.): 34.9 mg/kg
- A50(95% C.L.) Hot Plate- Ligated ([5]; i.th): 14.8 µg
- A50(95% C.L.) Hot Plate- Sham ([5]; i.th): 48.1 µg
